Where two headings read alike, the source gives them in different places.
How the values were obtained:
[1] = target: T1, recombinant human serum albumin (rHA) immobilised on silica (Homo sapiens, UniProt P02768); conditions: pH 7.5
[2] = target: albumin (Homo sapiens, UniProt P02768); conditions: binding to albumin; Peters et al.; Kragh-Hansen 1990; cited from earlier work
[3] = target: T1, recombinant human serum albumin (rHA) immobilised on silica; experiment: Enantioselective HPLC analysis by the rHA-based column; conditions: 1-propanol/phosphate buffer (pH 7.5) 15/85 (v/v), 0.6 ml/min flow rate

Sequence of albumin (P02768 25-609, species assumed): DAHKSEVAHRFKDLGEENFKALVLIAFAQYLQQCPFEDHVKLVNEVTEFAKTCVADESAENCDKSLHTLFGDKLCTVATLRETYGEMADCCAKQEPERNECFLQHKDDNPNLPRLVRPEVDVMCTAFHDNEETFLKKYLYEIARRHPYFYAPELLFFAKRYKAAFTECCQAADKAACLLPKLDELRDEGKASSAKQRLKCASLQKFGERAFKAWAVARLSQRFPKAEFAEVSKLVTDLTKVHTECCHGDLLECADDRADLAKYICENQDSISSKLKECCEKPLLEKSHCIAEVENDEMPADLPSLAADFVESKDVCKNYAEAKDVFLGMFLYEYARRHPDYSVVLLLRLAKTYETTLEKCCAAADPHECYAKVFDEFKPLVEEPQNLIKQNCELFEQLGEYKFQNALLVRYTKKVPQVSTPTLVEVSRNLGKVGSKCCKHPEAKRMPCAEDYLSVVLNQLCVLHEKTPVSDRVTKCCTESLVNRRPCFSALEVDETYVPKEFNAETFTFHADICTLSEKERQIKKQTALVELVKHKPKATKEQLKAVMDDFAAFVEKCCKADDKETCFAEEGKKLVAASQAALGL
T1 sequence (P02768 25-609): as the sequence (P02768 25-609, species assumed) above

Row | Molecule | affinity relative to the other enantiomer (antipode) [2] | further results
1 | CC(C)CC(NC(=O)c1ccccc1)C(=O)O (racemic) [N-benzoyl-DL-leucine] | – | enantioselectivity (α) [1]: 2.8
2 | O=C(O)CCC(=O)O[C@@H]1N=C(c2ccccc2)c2cc(Cl)ccc2NC1=O [(S)-oxazepam-hemisuccinate] | 35 fold | –
3 | N[C@@H](Cc1c[nH]c2ccccc12)C(=O)O [L-tryptophan] | 100 fold | –
4 | rac-lorazepam hemisuccinate | – | enantioselectivity (α) [3]: 5.3
